Laboratory results as given in patent US12319710B2, “Catecholamine prodrugs for use in the treatment of Parkinson's diseases” (H. Lundbeck A/S, priority 2019, dated 2025).

Tests used:
[1] = PK experiments in rats: plasma compound (I) after oral dosing of prodrug; type: in vivo, Wistar rats; conditions: Wistar rats, oral
Method: Plasma was placed on water-ice following collection. Final storage at approximately −70° C.
Mobile phase B: Acetonitrile. […] Flow rate 0.5 mL/min.
The rats had unrestricted access to the diet.
Mobile phase B: Acetonitrile+0.2% formic acid. […] Flow rate 0.3 mL/min.
Dosing and blood sampling: Han Wistar rats were supplied by Envigo, UK. […] The rats received a standard laboratory diet Teklad 2014C. The rats had unrestricted access to the diet. […] Rats were given […] (Ic), 487 ag/kg compound (7), 487 ag/kg Compound (4), 674 ag/kg compound (9), 359 ag/kg A6 and 551 ag/kg A2.

[2] = target: T1, human 5-HT2B receptor (Homo sapiens, UniProt P41595); test: 5-HT2B agonist activity assay (IP1 production, HTRF, transfected CHO cells); type: cell-based
T1 construct: host or cells: CHO cells (membrane homogenates)
Method: Evaluation of the agonist activity of compounds (I), (Ia) and (Ib) at the human 5-HT2B receptor was performed by Eurofins/Cerep (France) measuring the compound effects on inositol monophosphate (IP1) production using the HTRF detection method. Briefly, the human 5-HT2B receptor was expressed in transfected CHO cells. The cells were suspended in a buffer containing 10 mM Hepes/NaOH (pH 7.4), 4.2 mM KCl, 146 mM NaCl, 1 mM CaCl2, 0.5 mM MgCl2, 5.5 mM glucose and 50 mM LiCl, then distributed in microplates at a density of 4100 cells/well and incubated for 30 minutes at 37° C. in the presence of buffer (basal control), test compound or reference agonist. For stimulated control measurement, separate assay wells contained 1 μM 5-HT. Following incubation, the cells were lysed and the fluorescence acceptor (fluorophen D2-labeled IP1) and fluorescence donor (anti-IP1 antibody labeled with europium cryptate) were added. After 60 minutes at room temperature, the fluorescence transfer was measured at lambda(Ex) 337 nm and lambda(Em) 620 and 665 nm using a microplate reader (Rubystar, BMG). The IP1 concentration was determined by dividing the signal measured at 665 nm by that measured at 620 nm (ratio). The results were expressed as a percent of the control response to 1 μM 5-HT. […]

[3] = man, oral dosing; cited from earlier work

T1 sequence (P41595 whole entry): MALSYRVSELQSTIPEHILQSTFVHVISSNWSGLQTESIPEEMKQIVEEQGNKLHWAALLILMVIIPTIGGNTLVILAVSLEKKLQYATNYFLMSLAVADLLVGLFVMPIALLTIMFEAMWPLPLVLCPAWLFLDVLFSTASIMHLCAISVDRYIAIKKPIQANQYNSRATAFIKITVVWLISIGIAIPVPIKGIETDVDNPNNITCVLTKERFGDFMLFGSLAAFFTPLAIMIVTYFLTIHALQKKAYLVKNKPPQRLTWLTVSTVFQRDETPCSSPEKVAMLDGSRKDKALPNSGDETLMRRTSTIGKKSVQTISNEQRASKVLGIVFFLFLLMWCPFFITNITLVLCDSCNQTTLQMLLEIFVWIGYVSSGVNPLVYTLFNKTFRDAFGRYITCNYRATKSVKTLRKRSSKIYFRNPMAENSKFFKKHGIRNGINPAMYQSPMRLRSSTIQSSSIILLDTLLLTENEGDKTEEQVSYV

SMILES	plasma concentrations of compound (I) after oral dosing (in words) [1]	5-HT2B % @ 30 uM ([2]; 30 uM, percent of control response to 1 μM 5-HT) [%]	5-HT2B receptor agonism (in words) [2]	oral bioavailability [3] [%]
CCCN1CCC[C@@H]2CC3=C(CCCC3=O)C[C@H]21 [(Ia), reference compound]	early and high peak plasma concentrations of compound (I)	58		
CCCN1CCC[C@@H]2Cc3c(ccc4c3OCO4)C[C@H]21 [(Ib), (6aR,10aR)-7-propyl-6,6a,7,8,9,10,10a,11-octahydro-[1,3]dioxolo[4′,5′:5,6]benzo[1,2-g]quinoline, reference compound]	early and high peak plasma concentrations of compound (I)		agonist of the 5-HT2B receptor	
CCCc1cc2c(s1)CN[C@@H]1CCc3cc(OC(C)=O)c(OC(C)=O)cc3[C@@H]21 [Adrogolide]				~4
